Columns and labels:
Mus musculus [1] = assay: Antiinflammatory activity in mouse assessed as reduction in PMA-induced ear edema at 0.1 mg/ear administered topically measured after 24 hrs relative to control; type: functional; parameters: scale not given: the % may be the effect or the level left
Mus musculus [2] = assay: Toxicity in mouse at 0.1 mg/ear administered topically; type: organism-based; conditions: in vivo, topical_or_ocular
Mus musculus [3] = assay: Antiinflammatory activity in mouse assessed as reduction in PMA-induced ear edema at 3 mg/ear administered topically relative to control; type: functional; parameters: scale not given: the % may be the effect or the level left

SMILES	Activity (Mus musculus [1]) [%]	Activity (Mus musculus [2])	Activity (Mus musculus [3]) [%]
C/C(=C\C=C\C(C)(C)O)C1CC[C@@H](C)C[C@H]1O (stereo not given in full)	71	Non-toxic	–
C/C(=C\C=C\C(C)(C)O)C(C)C	80	Non-toxic	–
C/C(=C\C=C\C(C)(C)O)C1CCc2ccccc2C1 (stereo not given)	58	Non-toxic	–
C/C(=C\C=C\C(C)(C)O)C1CCCCC1	62	Non-toxic	–
C/C(=C\C=C\C(C)(C)O)c1ccccc1	0	Non-toxic	–
CC1=CCC(/C(C)=C/C=C/C(C)(C)O)CC1 (stereo not given)	58	Non-toxic	–
COc1ccc2c(c1)c(CC(=O)O)c(C)n2C(=O)c1ccc(Cl)cc1 [INDOMETHACIN]	–	–	51
C=C[C@@]1(C)CC[C@H](/C(C)=C/C=C/C(C)(C)O)C[C@@H]1C(=C)C [FUSCOL]	46	Non-toxic	–

— ChEMBL document CHEMBL3351784, “Synthesis and evaluation of anti-inflammatory activity of derivatives of the marine natural products fuscol and eunicol” (Bioorg Med Chem Lett, 2014)
